Data on eight molecules can be found in article PMC3358478 (Chemical Research in Toxicology, 2012).

Entries after “also recorded” stand apart in the source; their conditions may differ. Bounds are passed on as bounds.

One series has as its target T1, Human P450 1A1 (Homo sapiens, UniProt P04798).
T1 sequence (P04798 1-512): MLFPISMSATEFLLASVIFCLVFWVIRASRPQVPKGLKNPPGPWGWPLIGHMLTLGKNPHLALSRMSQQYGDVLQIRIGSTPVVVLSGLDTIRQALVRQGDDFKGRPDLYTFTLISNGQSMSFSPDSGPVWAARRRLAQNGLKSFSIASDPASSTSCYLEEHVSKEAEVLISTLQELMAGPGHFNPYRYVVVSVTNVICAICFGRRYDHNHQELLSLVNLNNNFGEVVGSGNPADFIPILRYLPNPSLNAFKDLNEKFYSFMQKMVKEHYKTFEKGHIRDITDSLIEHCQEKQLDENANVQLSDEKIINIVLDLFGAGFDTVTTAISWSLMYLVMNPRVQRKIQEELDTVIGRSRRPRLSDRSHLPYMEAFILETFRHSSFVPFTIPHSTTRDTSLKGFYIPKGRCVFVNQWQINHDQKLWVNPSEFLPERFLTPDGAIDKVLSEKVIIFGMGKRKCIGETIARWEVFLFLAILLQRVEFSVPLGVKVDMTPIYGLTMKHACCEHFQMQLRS
Kind of series: Ethoxyresorufin O-deethylation. The series is classed as biochemical. To be noted: for kinact: read-out: limiting Kinact on P450 1A1.

For another series, the target named is T2, Human P450 1A2 (Homo sapiens, UniProt P05177).
T2 sequence (P05177 1-516): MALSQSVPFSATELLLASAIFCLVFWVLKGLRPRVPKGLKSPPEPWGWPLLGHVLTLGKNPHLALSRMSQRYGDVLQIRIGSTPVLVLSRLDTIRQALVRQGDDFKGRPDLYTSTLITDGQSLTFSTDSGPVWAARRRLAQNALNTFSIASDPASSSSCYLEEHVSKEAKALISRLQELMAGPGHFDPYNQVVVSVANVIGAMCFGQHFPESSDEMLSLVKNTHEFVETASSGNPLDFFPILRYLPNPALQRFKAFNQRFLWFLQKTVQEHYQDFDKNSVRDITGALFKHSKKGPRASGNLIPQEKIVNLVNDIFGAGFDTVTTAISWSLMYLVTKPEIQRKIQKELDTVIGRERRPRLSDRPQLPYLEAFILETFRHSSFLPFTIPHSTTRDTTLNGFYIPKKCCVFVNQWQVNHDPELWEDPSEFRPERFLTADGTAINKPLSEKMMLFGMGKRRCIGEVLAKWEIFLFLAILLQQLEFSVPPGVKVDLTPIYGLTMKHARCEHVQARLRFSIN
Kind of series: Methoxyresorufin O-demethylation. The series is classed as biochemical. The following applies: for inhibition behavior toward P450 1A2: concentration- and NADPH-dependence; for difference in the IC50 values, more effective on P450 1A2 than P450 1A1: IC50 1A1 vs 1A2.

For another series, the target named is T3, rat P450 2B1 (Rattus norvegicus, UniProt P00176).
T3 sequence (P00176 1-491): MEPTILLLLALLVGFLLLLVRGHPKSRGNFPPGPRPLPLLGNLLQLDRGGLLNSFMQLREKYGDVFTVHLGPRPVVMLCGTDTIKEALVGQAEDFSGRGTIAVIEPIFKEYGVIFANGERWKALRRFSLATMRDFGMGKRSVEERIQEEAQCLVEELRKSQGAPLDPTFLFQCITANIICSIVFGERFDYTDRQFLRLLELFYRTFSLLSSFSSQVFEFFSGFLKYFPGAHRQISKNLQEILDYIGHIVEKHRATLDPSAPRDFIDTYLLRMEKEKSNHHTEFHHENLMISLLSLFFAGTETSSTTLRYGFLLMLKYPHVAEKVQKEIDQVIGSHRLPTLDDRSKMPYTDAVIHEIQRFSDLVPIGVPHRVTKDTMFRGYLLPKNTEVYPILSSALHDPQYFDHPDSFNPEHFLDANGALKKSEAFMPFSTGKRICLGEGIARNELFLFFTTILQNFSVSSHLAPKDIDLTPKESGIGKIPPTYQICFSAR
The series can be described thus: Pentoxyresorufin O-depentylation. It is filed as biochemical. The following applies: for inhibition behavior toward P450 2B1: time-dependence.

A further series deals with T4, Human P450 2A6 (Homo sapiens, UniProt P11509).
T4 sequence (P11509 1-494): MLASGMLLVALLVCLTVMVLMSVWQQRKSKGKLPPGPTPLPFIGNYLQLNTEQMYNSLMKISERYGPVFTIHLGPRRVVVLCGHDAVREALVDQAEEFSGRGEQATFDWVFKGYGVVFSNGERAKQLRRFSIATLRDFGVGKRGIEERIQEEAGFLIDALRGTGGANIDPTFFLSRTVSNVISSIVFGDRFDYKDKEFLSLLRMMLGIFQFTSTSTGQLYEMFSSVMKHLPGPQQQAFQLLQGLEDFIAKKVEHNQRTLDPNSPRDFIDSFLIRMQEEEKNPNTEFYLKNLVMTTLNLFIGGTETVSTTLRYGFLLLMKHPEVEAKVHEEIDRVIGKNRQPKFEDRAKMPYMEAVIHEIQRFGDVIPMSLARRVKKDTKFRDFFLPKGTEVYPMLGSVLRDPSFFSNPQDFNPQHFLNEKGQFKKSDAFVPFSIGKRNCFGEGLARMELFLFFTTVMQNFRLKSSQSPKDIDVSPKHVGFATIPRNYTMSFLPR
The series can be described thus: Coumarin 7-hydroxylation assay, P450 2A6 inhibition.

One may read the Ki as a dissociation constant, usually derived from enzyme kinetics or from competition with a known ligand. A high value points to weaker binding. As usually defined, the kinact is the maximal first-order rate at which the target is inactivated. By IC50 is commonly meant the concentration that gives 50% inhibition. As for `C#Cc1ccc2c(-c3ccccc3)c(C)c(=O)oc2c1` [7E3M4PC, 7-Ethynyl-3-methyl-4-phenylcoumarin], at Human P450 1A1, affinity was put at a Ki of 3.58 µM and the kinact is 0.00617 s⁻¹. Further, at Human P450 1A2, the “inhibition behavior toward P450 1A2” value is “does not show a time-dependent loss of enzymatic activity; also recorded: sole competitive inhibitor; also recorded: does not show time- and NADPH-dependent inhibition; also recorded: completely competitive”. Besides, on rat P450 2B1, the IC50 amounted to 9.16 µM and the “inhibition behavior toward P450 2B1” value is on record as “sole mechanism-based inhibitor”. Further, at rat P450 2B1 (read-out: limiting Kinact on P450 2B1), the kinact is 0.00483 s⁻¹. At Human P450 2A6, the IC50 was more than 50 µM.

As to `C#Cc1ccc2cc(-c3ccccc3)c(=O)oc2c1` [7E3PC, 7-Ethynyl-3-phenylcoumarin], the values for the Ki on Human P450 1A1 and on Human P450 1A2 were 0.38 µM and 0.65 µM, respectively. Moreover, the “potency toward P450 1A1 relative to P450 1A2” value on Human P450 1A1 (IC50 1A2 vs 1A1) is on record as “about five times more potent”. Further, the kinact on Human P450 1A1 is 0.00417 s⁻¹. For the same molecule, the “inhibition behavior toward P450 1A2” value against Human P450 1A2 was “mainly results from competitive inhibition and not from mechanism-based inhibition”. The IC50 on rat P450 2B1 and against Human P450 2A6 was more than 50 µM in each case.

In the case of `C#Cc1ccc2c(C)c(-c3ccccc3)c(=O)oc2c1` [7E4M3PC, 7-Ethynyl-4-methyl-3-phenylcoumarin], the values for the Ki at Human P450 1A1 and at Human P450 1A2 were 5.16 µM and 0.83 µM, respectively. Besides, at Human P450 1A1, the kinact is 0.00517 s⁻¹. Moreover, the IC50 against rat P450 2B1 and at Human P450 2A6 was more than 50 µM each time.

As for `C#Cc1ccc2c(C)cc(=O)oc2c1` [7E4MC, 7-Ethynyl-4-methylcoumarin], on Human P450 1A1, the Ki turned out to be 38.6 µM and the kinact was 0.0035 s⁻¹. Also, at Human P450 1A2, affinity was put at a Ki of 2.65 µM and the “difference in the IC50 values, more effective on P450 1A2 than P450 1A1” value is listed as “around 5 fold”. Besides, the IC50 against rat P450 2B1 was more than 50 µM. This molecule returned an IC50 against Human P450 2A6 of more than 50 µM.

With `C#Cc1ccc2c(C(F)(F)F)cc(=O)oc2c1` [7E4TFC, 7-Ethynyl-4-(trifluoromethyl)coumarin], on Human P450 1A1, the Ki worked out at 16.8 µM and the kinact was 0.00383 s⁻¹. Besides, at Human P450 1A2, the affinity corresponds to a Ki of 3.15 µM and the “difference in the IC50 values, more effective on P450 1A2 than P450 1A1” value is given as “around 5 fold”. At rat P450 2B1, half-maximal inhibition (IC50) was put at 15.1 µM and the “inhibition behavior toward P450 2B1” value is on record as “competitive inhibitor”. The same molecule yielded an IC50 against Human P450 2A6 of more than 50 µM.

With `C#Cc1cc2oc(=O)ccc2cc1OC` [7E6MOC, 7-Ethynyl-6-methoxycoumarin], the Ki on Human P450 1A1 came to 104 µM; at Human P450 1A2 it was 78.9 µM. Besides, on Human P450 1A1, the kinact was 0.00567 s⁻¹. Besides, the IC50 at rat P450 2B1 and on Human P450 2A6 was more than 50 µM in each case.

On Human P450 1A2, `C#Cc1ccc2ccc(=O)oc2c1` [7EC, 7-Ethynylcoumarin] showed an inhibition constant (Ki) of 5.83 µM. For the same molecule, the IC50 against rat P450 2B1 and at Human P450 2A6 was more than 50 µM in each case.

On to `C#Cc1ccc2c(C)c(C)c(=O)oc2c1C` [7ETMC, 7-Ethynyl-3,4,8-trimethylcoumarin], for which the Ki was 0.57 µM on Human P450 1A1 and 0.87 µM on Human P450 1A2. Also, the kinact on Human P450 1A1 was 0.00567 s⁻¹. For the same molecule, the “inhibition behavior toward P450 1A1” value against Human P450 1A1 (time-, concentration- and NADPH-dependence) is “time-dependent inhibition; also recorded: NADPH-dependent manner”. Also, the IC50 against rat P450 2B1 and on Human P450 2A6 was more than 50 µM throughout. Further, the “inhibition activity for P450 2B1” value on rat P450 2B1 (at the dose of 50 μM) is on record as “did not show any inhibition activity”. Further, the “inhibition activity for P450 2A6” value at Human P450 2A6 (at the dose of 50 μM) is listed as “did not show any inhibition activity”.
